Measurements taken from publication PMC11952846, “The sterol-regulating human ARV1 binds cholesterol and phospholipids through its conserved ARV1 homology domain” (The Journal of Biological Chemistry, 2025).
Substitutions are numbered along the chain they refer to.

Columns and labels:
[1] = target: T1, GST-ARV1-N98 (N-terminal 98 amino acids, AHD) (Homo sapiens, UniProt Q9H2C2); assay: Protein-lipid liposome binding assay (ultracentrifugation, Western blot); conditions: protein detected in final pellet
T1 construct: Expresses amino-terminal 98 amino acids of ARV1; made in house; host or cells: E. coli BL21 (pGEX-4T1)
T1 sequence (Q9H2C2 1-98): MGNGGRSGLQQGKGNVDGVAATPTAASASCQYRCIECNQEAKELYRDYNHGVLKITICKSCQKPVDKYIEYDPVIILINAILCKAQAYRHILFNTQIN

[2] = target: T2, 6XHIS-ARV1-N98 D72A (Homo sapiens, UniProt Q9H2C2, D72A); assay: Lipid overlay far western, site-directed mutant; type: binding; conditions: compared to the ARV1-N98 protein
T2 construct: Expressing amino-terminal 98 amino acids of ARV1; made in house; host or cells: E. coli BL21 (pET-28a(+))
How it was run: (§1)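 Lipid-spotted membranes blocked 1 h in TBST-BSA (pH 7.5, 3% BSA), then probed 1 h at room temperature with 0.5 μg/ml tagged protein in 3% TBST-BSA plus 0.1% Triton X-100. Bound protein detected with anti-GST or anti-6XHIS antibody (1:1000, 1 h) and HRP chemiluminescence imaging.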

[3] = target: T3, 6XHIS-ARV1-N98 E70A (Homo sapiens, UniProt Q9H2C2, E70A); assay: Lipid overlay far western, site-directed mutant; type: binding; conditions: compared to the ARV1-N98 protein
T3 construct: Expressing amino-terminal 98 amino acids of ARV1; made in house; host or cells: E. coli BL21 (pET-28a(+))
How it was run: as §1

[4] = target: T4, 6XHIS-ARV1-N98 N94Q (Homo sapiens, UniProt Q9H2C2, N94Q); assay: Lipid overlay far western, site-directed mutant; type: binding; conditions: compared to the ARV1-N98 protein
T4 construct: Expressing amino-terminal 98 amino acids of ARV1; made in house; host or cells: E. coli BL21 (pET-28a(+))
T4 sequence (Q9H2C2 1-98 N94Q): T1 sequence (Q9H2C2 1-98) with N94Q
How it was run: as §1

[5] = target: T5, GST-ARV1-N98 C34/C37A (Homo sapiens, UniProt Q9H2C2, C34A/C37A); assay: Liposome binding assay, site-directed mutant; conditions: PC:PL, sulfatide or PI(4)P liposomes
T5 construct: Expresses amino-terminal 98 amino acids of ARV1; made in house; host or cells: E. coli BL21 (pGEX-4T1)
T5 sequence (Q9H2C2 1-98 C34A/C37A): T1 sequence (Q9H2C2 1-98) with C34A, C37A
Procedure: Lyophilized lipids were reconstituted in chloroform at 10 mg/ml and stored in glass tubes with Teflon tops at −20 °C until use. One milliliter of 10 mg/ml stock was dried under a stream of nitrogen in a glass tube until a lipid cake/film was formed. The lipid cake was then rehydrated in BLT rehydration buffer (5 mM Tris/HCl, pH 7.4, containing 150 mM NaCl) to a concentration of 1 mg/ml. Lipid suspensions were subjected to three freeze/thaw cycles using a dry ice ethanol/[…] water bath to encapsulate the buffer and improve liposome formation. The suspension and lipid extruder were equilibrated to temperature for 10 min and liposomes were extruded using […] polycarbonate membranes (Avestin). Liposomes were made by mixing stock lipid PL (1 mg/ml) with PC (10 mg/ml).
Sulfatide liposomes were generated as previously described ([94]). All lipids were resuspended in organic solvents as per manufacturer’s instructions. Liposomes were prepared with mixing PC:PE:cholesterol:sulfatides (1:1:1:4) and subsequently dried down by lyophilization to obtain lipid films. Lipids were hydrated in 20 mM Tris–HCL, pH 6.8, containing 100 mM NaCl at a concentration of 1 mg/ml.
PI(4)P liposomes were generated as described by Knodler et al. ([95]), with some modifications. Briefly, liposomes were generated at a lipid concentration of 10 mg/ml. Liposomes contained PC (60%), PI (30%), PE (8%), and PI(4)P (2%). Lipid solution was dried down and resuspended in liposome buffer (20 mM Hepes–HCL, pH 7.4, containing 1 mM EDTA and 50 mM potassium acetate). Liposomes were formed by sonication on ice.
Liposomes were serial diluted in floatation buffer (100 mM NaCl, 2 mM EDTA, pH 5.5) to a final concentration of 0.1 mg/ml. Nine hundred microliters of liposome solution was placed in clear ultracentrifuge tubes and mixed with 100 μl of 0.01 μg/ml of protein. The liposome/protein solution was incubated at room temperature for 1 h with occasional shaking. An initial 100 μl of liposome/protein solution (liposomes) was removed and the remaining 900 μl was centrifuged at 50,000g for 20 min at 4 °C. The pellet was resuspended in 800 μl of fresh floatation buffer, centrifuged as above, and 800 μl of supernatant was removed (wash 1). This was repeated a second time and again 800 μl of supernatant was removed (wash 2). The final pellet was resuspended in 100 μl of floatation buffer plus SDS treatment buffer (pellet). Thirty microliters of each fraction was run on a 15% SDS-PAGE gel and probed with an anti-GST monoclonal antibody at a 1:1500 dilution.

[6] = target: T6, 6XHIS-ARV1-N98 C58/C61A (Homo sapiens, UniProt Q9H2C2, C58A/C61A); assay: Lipid overlay far western, site-directed mutant; type: binding; conditions: compared to the ARV1-N98 protein
T6 construct: Expressing amino-terminal 98 amino acids of ARV1; made in house; host or cells: E. coli BL21 (pET-28a(+))
T6 sequence (Q9H2C2 1-98 C58A/C61A): T1 sequence (Q9H2C2 1-98) with C58A, C61A
How it was run: as §1

[7] = target: T7, 6XHIS-ARV1-N98 K54/K59A (Homo sapiens, UniProt Q9H2C2, K54A/K59A); assay: Lipid overlay far western, site-directed mutant; type: binding; conditions: compared to the ARV1-N98 protein
T7 construct: Expressing amino-terminal 98 amino acids of ARV1; made in house; host or cells: E. coli BL21 (pET-28a(+))
T7 sequence (Q9H2C2 1-98 K54A/K59A): T1 sequence (Q9H2C2 1-98) with K54A, K59A
How it was run: as §1

[8] = target: T8, GST-ARV1-N70 (Homo sapiens, UniProt Q9H2C2); assay: Lipid overlay far western, truncation; type: binding; conditions: compared to ARV1-N98
T8 construct: Expresses amino-terminal 70 amino acids of ARV1; made in house; host or cells: E. coli BL21 (pGEX-4T1)
T8 sequence (Q9H2C2 1-70): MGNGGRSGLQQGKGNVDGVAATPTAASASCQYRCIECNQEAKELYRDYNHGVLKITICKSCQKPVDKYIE
How it was run: as §1

T2 sequence (Q9H2C2 1-98 D72A): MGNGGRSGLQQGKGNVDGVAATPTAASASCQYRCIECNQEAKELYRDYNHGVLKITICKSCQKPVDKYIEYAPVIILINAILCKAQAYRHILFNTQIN
T3 sequence (Q9H2C2 1-98 E70A): as the sequence (Q9H2C2 1-98 D72A) above, with E70A, A72D counted along it

Row | Molecule | binding to PC:PL liposomes [1] | change of lipid-protein interaction [2] | change of lipid-protein interaction [3] | change of lipid-protein interaction [4] | liposome binding [5] | change of lipid-protein interaction [6] | change of lipid-protein interaction [7] | change of lipid-protein interaction [8]
1 | CCCCC/C=C\C/C=C\CCCCCCCC(=O)OC[C@H](COP(=O)(O)OCC(O)COP(=O)(O)OC[C@@H](COC(=O)CCCCCCC/C=C\C/C=C\CCCCC)OC(=O)CCCCCCC/C=C\C/C=C\CCCCC)OC(=O)CCCCCCC/C=C\C/C=C\CCCCC (some centres unmarked) [CL, cardiolipin] | bound | weakened | weakened | more strongly | – | – | – | –
2 | CCCCCCCCCCCCCCCC(=O)OC[C@H](COP(=O)(O)O)OC(=O)CCCCCCCCCCCCCCC [PA, phosphatidic acid] | not | – | – | – | bound | – | – | –
3 | CCCCCCCC/C=C\CCCCCCCC(=O)OC[C@H](COP(=O)(O)OCC(O)CO)OC(=O)CCCCCCC/C=C\CCCCCCCC (some centres unmarked) [PG, phosphatidylglycerol] | bound | weakened | weakened | more strongly | not | weakened or eliminated | abolished | –
4 | CCCCCCCCCCCCCCCCCC(=O)OC[C@H](COP(=O)(O)OC[C@H](N)C(=O)O)OC(=O)CCCCCCCCCCCCCCCCC [PS, phosphatidylserine] | bound | – | – | – | – | enhanced | – | reduced interactions
5 | CCCCCC(=O)O[C@H](COC(=O)CCCCCNC(=O)CCCC[C@@H]1SC[C@@H]2NC(=O)N[C@@H]21)COP(=O)(O)O[C@H]1[C@H](O)[C@@H](O)[C@H](OP(=O)(O)O)[C@@H](O)[C@H]1O [reference compound] | – | – | – | – | bound | – | increasing the interaction | enhanced
6 | phosphatidylethanolamine [PE] | Neither | – | – | – | – | – | – | –
